Tests used:
[1] = target: T1, RIPK1 (Homo sapiens, UniProt Q13546); assay: Immunoblotting of TNFα induced phospho-RIPK1 (ser 166) levels; format: cell-based; details: HMC3 cells; Z-VAD-FMK, human TNFα 20 ng/ml, SM-164 100 nM; 7 h, serum free media; read-out: Cell-base RIPK1 activity: phspho-RIPK1 (Ser166)
T1 construct: endogenous in cells; host or cells: HT-29 (KCLB 30038)
T1 sequence (Q13546 1-671): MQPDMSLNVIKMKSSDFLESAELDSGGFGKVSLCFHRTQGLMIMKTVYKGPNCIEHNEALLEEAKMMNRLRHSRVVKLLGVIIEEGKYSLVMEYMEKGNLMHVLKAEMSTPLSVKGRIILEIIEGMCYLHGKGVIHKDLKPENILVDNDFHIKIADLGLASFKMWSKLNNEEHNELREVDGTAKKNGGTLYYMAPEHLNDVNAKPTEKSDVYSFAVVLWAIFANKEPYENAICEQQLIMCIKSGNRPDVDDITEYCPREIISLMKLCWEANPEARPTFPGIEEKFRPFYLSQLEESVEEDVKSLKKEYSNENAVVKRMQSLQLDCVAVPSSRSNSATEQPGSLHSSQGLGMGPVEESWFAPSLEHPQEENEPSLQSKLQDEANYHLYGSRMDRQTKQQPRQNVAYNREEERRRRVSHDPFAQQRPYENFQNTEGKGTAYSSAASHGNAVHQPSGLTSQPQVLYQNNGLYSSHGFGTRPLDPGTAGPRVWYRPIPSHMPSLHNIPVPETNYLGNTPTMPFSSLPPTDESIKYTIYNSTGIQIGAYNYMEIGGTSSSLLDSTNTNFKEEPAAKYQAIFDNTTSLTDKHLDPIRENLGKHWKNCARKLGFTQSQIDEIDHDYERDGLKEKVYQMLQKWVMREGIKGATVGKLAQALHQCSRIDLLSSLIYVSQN
Outline: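 HMC3 human microglial cells were pretreated 30 min with Z-VAD-FMK […]. They were then given TNFα 20 ng/ml, SM-164 100 nM and inhibitor (0.1, 1, 10 nM) for 7 h in serum-free medium. BCA-normalised lysates were immunoblotted for phospho-RIPK1 Ser166.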

[2] = target: T1, RIPK1; assay: Cell-based necroptosis assay for RIPK1 activity (cell viability by CCK-8); details: HT-29 cells; Z-VAD-FMK 20 μM, human TNFα 10 ng/ml, SM-164 100 nM; 24 h; read-out: Cell-base RIPK1 activity: Necroptosis
Outline: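 HT-29 cells pretreated 30 min with 20 μM Z-VAD-FMK, then necroptosis induced with human TNFα 10 ng/ml plus SM-164 100 nM alongside RIPK1 inhibitor (0.0001–10 uM) for 24 h. Viability read by CCK-8.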

| Compound | IC50 [1] [nM] | IC50 [2] [nM] |
| --- | --- | --- |
| CN1C(=O)[C@@H](NC(=O)n2cc(Cc3cccc(F)c3)cn2)COc2ccc(OCC(=O)N3CCC(C(C)(C)O)CC3)cc21 [Example 43, (S)-4-(3-fluorobenzyl)-N-(7-(2-(4-(2-hydroxypropan-2-yl)piperidin-1-yl)-2-oxoethoxy)-5-methyl-4-oxo-2,3,4,5-tetrahydrobenzo[b][1,4]oxazepin-3-yl)-1H-pyrazole-1-carboxamide] | < 10 | < 10 |
| CN1C(=O)[C@@H](NC(=O)n2cc(Cc3cccc(F)c3)cn2)COc2ccc(OCC(=O)N3CC(O)C3)cc21 [Example 50, (S)-4-(3-fluorobenzyl)-N-(7-(2-(3-hydroxyazetidin-1-yl)-2-oxoethoxy)-5-methyl-4-oxo-2,3,4,5-tetrahydrobenzo[b][1,4]oxazepin-3-yl)-1H-pyrazole-1-carboxamide] | < 10 | < 10 |
| CN1C(=O)[C@@H](NC(=O)n2cc(Cc3cccc(F)c3)cn2)COc2ccc(OCC#CC3(O)CCC3)cc21 [Example 24, (S)-4-(3-fluorobenzyl)-N-(7-((3-(1-hydroxycyclobutyl)prop-2-yn-1-yl)oxy)-5-methyl-4-oxo-2,3,4,5-tetrahydrobenzo[b][1,4]oxazepin-3-yl)-1H-pyrazole-1-carboxamide] | < 10 | < 10 |
| CN1C(=O)[C@@H](NC(=O)n2cc(Cc3cccc(F)c3)cn2)COc2ccc(C(=O)N3CCC(O)CC3)cc21 [Example 4, (S)-4-(3-fluorobenzyl)-N-(7-(4-hydroxypiperidine-1-carbonyl)-5-methyl-4-oxo-2,3,4,5-tetrahydrobenzo[b][1,4]oxazepin-3-yl)-1H-pyrazole-1-carboxamide] | < 10 | 10 to 50 |
| CN1C(=O)[C@@H](NC(=O)n2cc(Cc3cccc(F)c3)cn2)COc2ccc(OCC#CC3(O)CCCCC3)cc21 [Example 23, (S)-4-(3-fluorobenzyl)-N-(7-((3-(1-hydroxycyclohexyl)prop-2-yn-1-yl)oxy)-5-methyl-4-oxo-2,3,4,5-tetrahydrobenzo[b][1,4]oxazepin-3-yl)-1H-pyrazole-1-carboxamide] | < 10 | < 10 |

Further lines, with some results ahead:

| IC50 [1] [nM] | Compound | IC50 [2] [nM] |
| --- | --- | --- |
| < 10 | CC(C)CCCOc1ccc2c(c1)N(C)C(=O)[C@@H](NC(=O)n1cc(Cc3cccc(F)c3)cn1)CO2 [Example 15, (S)-4-(3-fluorobenzyl)-N-(5-methyl-7-((4-methylpentyl)oxy)-4-oxo-2,3,4,5-tetrahydrobenzo[b][1,4]oxazepin-3-yl)-1H-pyrazole-1-carboxamide] | < 10 |
| < 10 | Cc1noc(C)c1COc1ccc2c(c1)N(C)C(=O)[C@@H](NC(=O)n1cc(Cc3cccc(F)c3)cn1)CO2 [Example 67, (S)—N-(7-((3,5-dimethylisoxazol-4-yl)methoxy)-5-methyl-4-oxo-2,3,4,5-tetrahydrobenzo[b][1,4]oxazepin-3-yl)-4-(3-fluorobenzyl)-1H-pyrazole-1-carboxamide] | < 10 |
| < 10 | CN1C(=O)[C@@H](NC(=O)n2cc(Cc3cccc(F)c3)cn2)COc2ccc(OCc3cn(CC(C)(C)O)nn3)cc21 [Example 68, (S)-4-(3-fluorobenzyl)-N-(7-((1-(2-hydroxy-2-methylpropyl)-1H-1,2,3-triazol-4-yl)methoxy)-5-methyl-4-oxo-2,3,4,5-tetrahydrobenzo[b][1,4]oxazepin-3-yl)-1H-pyrazole-1-carboxamide] | < 10 |
| < 10 | COC(=O)c1csc(COc2ccc3c(c2)N(C)C(=O)[C@@H](NC(=O)n2cc(Cc4cccc(F)c4)cn2)CO3)n1 [Example 65, Methyl (S)-2-(((3-(4-(3-fluorobenzyl)-1H-pyrazole-1-carboxamido)-5-methyl-4-oxo-2,3,4,5-tetrahydrobenzo[b][1,4]oxazepin-7-yl)oxy)methyl)thiazole-4-carboxylate] | < 10 |
